Reference: patent US20100160369A1, “S1P1 Agonists and Methods of Making And Using” (EXELIXIS, INC., priority 2008, published 2010)
Like-named read-outs stand apart in the source and are kept apart here.

Molecular target: S1P1 (Homo sapiens, UniProt P21453)
Assay: CNG cAMP Assay (Assay 1)
Format: cell-based
Set-up: host or cells: HEK293 cells expressing the CNG channel
Description: Frozen HEK293 cells expressing the CNG channel and S1P1 (BD Biosciences, San Jose, Calif.) were thawed and plated into the wells of a black, clear bottom, 384-well CellBind plate (Corning, Corning, N.Y.) at 14,000 cells per well. HEK293 cells expressing the CNG channel and CB1 (BD Biosciences) were cultured and plated under the same conditions. The cells were incubated for 16 h at 37° C. in complete DMEM medium (Invitrogen Carlsbad, Calif.) containing 10% FBS (HyClone Logan, Utah), 250 μg/mL geneticin (Invitrogen), and 1 μg/mL puromycin (Sigma-Aldrich, St. Louis, Mo.). A membrane potential dye (BD Biosciences) was added and the plates were incubated for 2-2.5 h at room temperature.
Test compounds were tested at maximum concentrations of 10 μM. Compounds were diluted in DMSO (10 concentration points, 3-fold each) and added to the assay plate at final DMSO concentrations of 1.8%. For each compound, there were duplicate assay plates and each assay plate had duplicate wells per concentration point. Test compounds were added to the cells in a DPBS solution containing 25 μM Ro 20-1724 (Sigma-Aldrich), 500 nM of the A2b receptor agonist NECA (Sigma-Aldrich) and 10 nM (EC95) of S1P (Avanti Alabaster, Ala.) and incubated for 90 min. The assay plate was read before compound addition (T0) and after the 90 min incubation (T90) using an EnVision plate reader (PerkinElmer, Waltham, Mass.) at an excitation wavelength of 350 nm and an emission wavelength of 590 nm. The T90/T0 ratio was determined for each concentration of the test compounds. The percent agonist activity was determined as [(test compound−DMSO alone control)/(NECA alone control−DMSO alone control)*100]. The percent activities were plotted against compound concentration to determine EC50 using XLFit (IDBS, Alameda, Calif.). The control used for calculating rEC50 in the S1P1 CNG agonist assay was DMSO.
Assay 1 is the CNG cAMP Assay as described in Biological Example 1. Assay 2a and 2b are the Tango™ β-arrestin Recruitment Assay in HEK293 and U2OS cells, respectively, as described in Biological Example 2. Assay 3a is the hS1P1R GTPγS Binding Assay as described in Biological Example 3. Assay 3b is the GTP-Eu Binding Assay as described in Biological Example 3. EC50's were measured unless otherwise noted. […] In the table, “nt” means the Compound was not tested and “no” means the compound was tested but had no measurable activity under the assay conditions employed.

[1] = footnote 1: Relative EC50 was measured, read-out: Assay 1 Relative EC50
[2] = relative EC50 was measured (footnote 1), read-out: Assay 1 Relative EC50

Sequence of S1P1 (P21453 whole entry): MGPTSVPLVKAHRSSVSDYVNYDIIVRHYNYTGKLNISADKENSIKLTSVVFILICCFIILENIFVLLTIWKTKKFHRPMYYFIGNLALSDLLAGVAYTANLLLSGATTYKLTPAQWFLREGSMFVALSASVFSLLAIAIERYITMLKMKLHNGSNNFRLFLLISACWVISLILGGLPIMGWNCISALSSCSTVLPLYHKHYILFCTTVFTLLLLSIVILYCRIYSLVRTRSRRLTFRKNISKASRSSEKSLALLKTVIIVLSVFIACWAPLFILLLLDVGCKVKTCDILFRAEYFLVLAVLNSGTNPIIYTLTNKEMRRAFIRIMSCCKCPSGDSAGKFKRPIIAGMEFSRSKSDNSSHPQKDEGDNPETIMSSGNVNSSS

Row | SMILES | EC50 (read-out: Assay 1 EC50) | also measured
1 | Cc1cc(C2CC2C(=O)O)c(F)cc1-c1nc(-c2cn3cc(C(F)(F)F)cc(Cl)c3n2)no1 (stereo not shown) [Example 237, 2-(4-{3-[8-chloro-6-(trifluoromethyl)imidazo[1,2-a]pyridin-2-yl]-1,2,4-oxadiazol-5-yl}-2-fluoro-5-methylphenyl)cyclopropanecarboxylic acid] | – | EC50 [1]: 5000 to 10000 nM
2 | CS(=O)(=O)Nc1cc(Cl)c(-c2noc(-c3cn4cc(C(F)(F)F)cc(Cl)c4n3)n2)cc1F [Example 111, N-(5-chloro-4-{5-[8-chloro-6-(trifluoromethyl)imidazo[1,2-a]pyridin-2-yl]-1,2,4-oxadiazol-3-yl}-2-fluorophenyl)methanesulfonamide] | ≤ 100 nM | –
3 | NC(CC(=O)O)c1ccc(-c2noc(-c3cn4cc(C(F)(F)F)cc(Cl)c4n3)n2)c(Cl)c1 (stereo not shown) [Example 193, 3-amino-3-(3-chloro-4-{5-[8-chloro-6-(trifluoromethyl)imidazo[1,2-a]pyridin-2-yl]-1,2,4-oxadiazol-3-yl}phenyl)propanoic acid] | 100 to 500 nM | –
4 | CS(=O)(=O)Nc1cc(Cl)c(-c2nc(-c3cn4cc(C(F)(F)F)cc(Cl)c4n3)no2)cc1F [Example 234, N-(5-chloro-4-{3-[8-chloro-6-(trifluoromethyl)imidazo[1,2-a]pyridin-2-yl]-1,2,4-oxadiazol-5-yl}-2-fluorophenyl)methanesulfonamide] | ≤ 100 nM | –
5 | O=C(O)C1CC1c1ccc(-c2noc(-c3cn4cc(C(F)(F)F)cc(Cl)c4n3)n2)c(C(F)(F)F)c1 (stereo not shown) [Entry 70] | 100 to 500 nM | –
6 | O=C(O)CCc1cc(Cl)c(-c2noc(-c3cn4cc(F)cc(F)c4n3)n2)cc1F [Entry 40] | – | EC50 [2]: 1000 to 5000 nM
7 | O=C(O)CCNc1ccc(-c2noc(-c3cn4cc(C(F)(F)F)cc(Cl)c4n3)n2)c(Cl)c1 [Example 95, N-(3-chloro-4-{5-[8-chloro-6-(trifluoromethyl)imidazo[1,2-a]pyridin-2-yl]-1,2,4-oxadiazol-3-yl}phenyl)-beta-alanine] | 100 to 500 nM | –
8 | Fc1ccc(-c2nc(-c3cn4cc(C(F)(F)F)cc(Cl)c4n3)no2)c(Cl)c1 [Example 232, 8-chloro-2-[5-(2-chloro-4-fluorophenyl)-1,2,4-oxadiazol-3-yl]-6-(trifluoromethyl)imidazo[1,2-a]pyridine] | 100 to 500 nM | –
9 | CCNC(CC(=O)O)c1ccc(-c2noc(-c3cn4cc(C(F)(F)F)cc(Cl)c4n3)n2)c(Cl)c1 (stereo not shown) [Example 137, 3-(3-chloro-4-{5-[8-chloro-6-(trifluoromethyl)imidazo[1,2-a]pyridin-2-yl]-1,2,4-oxadiazol-3-yl}phenyl)-3-(ethylamino)propanoic acid] | – | EC50 [1]: 1000 to 5000 nM
10 | Cc1cc(NS(C)(=O)=O)c(F)cc1-c1noc(-c2cn3cc(C(F)(F)F)cc(Cl)c3n2)n1 [Example 106, N-(4-{5-[8-chloro-6-(trifluoromethyl)imidazo[1,2-a]pyridin-2-yl]-1,2,4-oxadiazol-3-yl}-2-fluoro-5-methylphenyl)methane sulfonamide] | ≤ 100 nM | –
11 | NCC(O)COc1ccc(-c2noc(-c3cn4cc(C(F)(F)F)cc(Cl)c4n3)n2)c(Cl)c1 (stereo not shown) [Example 223, 1-amino-3-[(3-chloro-4-{5-[8-chloro-6-(trifluoromethyl)imidazo[1,2-a]pyridin-2-yl]-1,2,4-oxadiazol-3-yl}phenyl)oxy]propan-2-ol] | ≤ 100 nM | –
12 | O=C(O)c1cc2cc(-c3noc(-c4cn5cc(C(F)(F)F)cc(Cl)c5n4)n3)ccc2[nH]1 [Example 169, 5-{5-[8-chloro-6-(trifluoromethyl)imidazo[1,2-a]pyridin-2-yl]-1,2,4-oxadiazol-3-yl}-1H-indole-2-carboxylic acid] | – | EC50 [1]: 5000 to 10000 nM
13 | CS(=O)(=O)Nc1c(F)cc(-c2noc(-c3cn4cc(C(F)(F)F)cc(Cl)c4n3)n2)cc1F [Example 265, N-(4-{5-[8-chloro-6-(trifluoromethyl)imidazo[1,2-a]pyridin-2-yl]-1,2,4-oxadiazol-3-yl}-2,6-difluorophenyl)methanesulfonamide] | – | EC50 [1]: 500 to 1000 nM
14 | NC(=O)C(CC(=O)O)c1ccc(-c2noc(-c3cn4cc(C(F)(F)F)cc(Cl)c4n3)n2)c(Cl)c1 (stereo not shown) [Example 135, 4-amino-3-(3-chloro-4-{5-[8-chloro-6-(trifluoromethyl)imidazo[1,2-a]pyridin-2-yl]-1,2,4-oxadiazol-3-yl}phenyl)-4-oxobutanoic acid] | 100 to 500 nM | –
15 | CC(CO)Oc1c(F)cc(-c2noc(-c3cn4cc(C(F)(F)F)cc(Cl)c4n3)n2)cc1Cl (stereo not shown) [Example 261, 2-[(2-chloro-4-{5-[8-chloro-6-(trifluoromethyl)imidazo[1,2-a]pyridin-2-yl]-1,2,4-oxadiazol-3-yl}-6-fluorophenyl)oxy]propan-1-ol] | ≤ 100 nM | –
16 | O=c1nc(-c2ccc(-c3noc(-c4cn5cc(C(F)(F)F)cc(Cl)c5n4)n3)c(Cl)c2)[nH]o1 [Example 134, 3-(3-chloro-4-{5-[8-chloro-6-(trifluoromethyl)imidazo[1,2-a]pyridin-2-yl]-1,2,4-oxadiazol-3-yl}phenyl)-1,2,4-oxadiazol-5(2H)-one] | 500 to 1000 nM | –
17 | FC(F)(F)c1cc(Cl)c2nc(-c3nc(-c4ccc5[nH]cnc5c4)no3)cn2c1 [Example 164, 5-{5-[8-chloro-6-(trifluoromethyl)imidazo[1,2-a]pyridin-2-yl]-1,2,4-oxadiazol-3-yl}-1H-benzimidazole] | 100 to 500 nM | –
18 | O=C(O)CCc1cc(Cl)c(-c2noc(-c3cn4ccccc4n3)n2)cc1F [Entry 27] | – | EC50 [2]: 5000 to 10000 nM
19 | O=C(O)CNCc1ccc(-c2noc(-c3cn4cc(C(F)(F)F)cc(Cl)c4n3)n2)c(Cl)c1 [Example 120, N-[(3-chloro-4-{5-[8-chloro-6-(trifluoromethyl)imidazo[1,2-a]pyridin-2-yl]-1,2,4-oxadiazol-3-yl}phenyl)methyl]glycine] | 500 to 1000 nM | –
20 | O=C(O)COc1ccc(-c2noc(-c3cn4cc(C(F)(F)F)cc(Cl)c4n3)n2)c(Cl)c1 [Example 253, [(3-chloro-4-{5-[8-chloro-6-(trifluoromethyl)imidazo[1,2-a]pyridin-2-yl]-1,2,4-oxadiazol-3-yl}phenyl)oxy]acetic acid] | 100 to 500 nM | –
21 | CC(CC(=O)O)c1ccc(-c2nnc(-c3cn4cc(C(F)(F)F)cc(Cl)c4n3)o2)c(Cl)c1 (stereo not shown) [Example 219, 3-(3-chloro-4-{5-[8-chloro-6-(trifluoromethyl)imidazo[1,2-a]pyridin-2-yl]-1,3,4-oxadiazol-2-yl}phenyl)butanoic acid] | ≤ 100 nM | –
22 | O=C(O)C(O)COc1ccc(-c2noc(-c3cn4cc(C(F)(F)F)cc(Cl)c4n3)n2)c(Cl)c1 (stereo not shown) [Entry 57] | ≤ 100 nM | –
23 | CC(Cc1ccc(-c2noc(-c3cn4cc(C(F)(F)F)cc(Cl)c4n3)n2)c(F)c1)C(=O)O (stereo not shown) [Example 192, 3-(4-{5-[8-chloro-6-(trifluoromethyl)imidazo[1,2-a]pyridin-2-yl]-1,2,4-oxadiazol-3-yl}-3-fluorophenyl)-2-methylpropanoic acid] | 100 to 500 nM | –
24 | O=C(O)C1CC1c1cc(F)c(-c2noc(-c3cn4cc(C(F)(F)F)cc(Cl)c4n3)n2)cc1F (stereo not shown) [Example 88, 2-(4-{5-[8-chloro-6-(trifluoromethyl)imidazo[1,2-a]pyridin-2-yl]-1,2,4-oxadiazol-3-yl}-2,5-difluorophenyl)cyclopropanecarboxylic acid] | ≤ 100 nM | –
25 | NCCOc1ccc(-c2nc(-c3cn4cc(C(F)(F)F)cc(Cl)c4n3)no2)c(Cl)c1 [Example 195, 2-[(3-chloro-4-{3-[8-chloro-6-(trifluoromethyl)imidazo[1,2-a]pyridin-2-yl]-1,2,4-oxadiazol-5-yl}phenyl)oxy]ethanamine] | 100 to 500 nM | –
